According to patent US7160862B2, “Integrin binding motif containing peptides and methods of treating skeletal diseases” (Acologix, Inc., priority 2000, dated 2007):
Where no end group is shown, it is not given here.

Legend:
[1] = system: calvaria from 4-days-old mice; assay: Fetal mouse calvarial assay (mouse calvarial organ culture, histomorphometry of new bone area); format: cell-based; details: 7-day organ culture of mouse calvaria halves in BGj medium with 0.1% BSA
Experimental: FGF-1 was purchased from Peprotech Inc. (Rocky Hill, N.J.). RGD-1, 2, 3, 4, 5 and 6 (referred to here as D-00001, D-00002, D-00003, D-00004, D-00005 and D-00006) were provided by Dr. Nomizu (Hokkaido University, Japan).
Pregnant ICR mice were purchased from SLC Japan Co. Ltd. (Shizuoka, Japan).
Mouse calvarial organ culture was performed as described in Mundy G et al. Science 286: 1946–1949, 1999 and Traianedes K et al. Endocrinology 139: 3178–3184, 1998. The calvaria from 4-days-old mice were excised and cut in half along the sagittal suture. Each half of the calvaria was placed on a stainless steel grid in a 12-well tissue culture dish (Asahi Glass Techno Corp., Funabashi, Japan). Each well contained 1.5 ml of BGj medium (Sigma, St. Louis, Mo.) supplemented with 0.1% bovine serum albumin (Sigma) and each compound. FGF-1 was used as a positive control as described by Mundy et al. The medium was changed at day 1 and 4, and the assay was terminated at day 7.
Calvaria was fixed with 10% neutral-buffered formalin, decalcified with 4.13% EDTA and embedded in paraffin. […] sections were made and stained with hematoxylin and eosin. New bone area was measured using Image-Pro Plus (Media Cybernetics, Silver Spring, Md.).

[2] = system: calvariae of four week old mice; assay: In vivo bone formation study (mouse calvaria growth assay); details: for bone area of calvaria sections compared to vehicle treated group: s.c. adjacent to calvariae twice a day for five days, D-00006 20 μg/kg/day, FGF-1 12.5 μg/kg/day, excised 15 days after last administration
Experimental: FGF-1 was purchased from Peprotech Inc. (Rocky Hill, N.J.). RGD-6 (referred to here as D-00006) was synthesized by CS Bio (San Carlos, Calif.) under the instruction of the inventors.
Four week old mice were purchased from SLC Japan Co. Ltd. (Shizuoka, Japan) and randomized to three groups (n=5).
D-00006 (20 μg/kg/day), FGF-1 (12.5 μg/kg/day), or vehicle (saline) was subcutaneously injected into the soft tissues adjacent to the calvariae of the test animals. The daily amount of the samples were divided by two, respectively, and injected twice a day for five days. After 15 days of the last administration, the calvariae were excised and cut in half along the sagittal suture, and provided to the Histomorphometrical analysis.
Calvaria was fixed with 10% neutral-buffered formalin, decalcified with 4.13% EDTA and embedded in paraffin. 4mm-thickness sections were made and stained with hematoxylin and eosin. New bone area was measured using Image-Pro Plus (Media Cybernetics, Silver Spring, Md.).

[3] = system: ovariectomized female Sprague-Dawley rats; assay: Effect on renal phosphate excretion in ovariectomized rats (serum and urine chemistry); format: in vivo, rat; details: Ovx rats, D-00006 20 and 200 μg/kg/day
Text: Forty 3-month old virgin female Sprague-Dawley rats (Harlan Sprague Dawley, Inc.) were acclimated for one week prior to beginning the experiments.
One day prior to the initiation of treatments, the animals were anesthetized with a ketamin/xylazine anesthetic mixture, and animals in groups 2–5 were ovariectomized.
Urine was collected in metabolic cages on Day 41. Blood and urine samples were collected for chemistry and bone turnover markers assays at the end of the 41-day treatment period. Prior to urine and blood collections, the animals were placed in metabolic cages and deprived of food for an overnight fast period of 18 hours. Urine samples were collected and the volumes recorded. The urine samples were then centrifuges at approximately 3000×g for 10 minutes in a refrigerated centrifuge. The samples were filtered to remove contaminating sediments.

Substance	ability to enhance bone growth (new bone area) [1]	efficacy on bone area relative to FGF-1 ([2]; D-00006 20 μg/kg/day vs FGF-1 12.5 μg/kg/day)	bone area of calvaria sections compared to vehicle treated group [2]	serum phosphorus ([3]; 41-day treatment)	total amount of phosphorus in the 18-hour urine collections ([3]; Day 41)	percentage of tubular reabsorption of phosphorus ([3]; derived urine parameter)	phosphate clearance ([3]; derived urine parameter)
TDLQERGDNDISPFSGDGQPFKD [D-00006]	best results	equivalent to that of FGF-1	significant expansion of bone area	dose-dependent increase	significant decrease	higher	lower
FGF-1: fibroblast growth factor-1 purchased from Peprotech Inc., used as a positive control [reference compound]	–	–	significant expansion of bone area	–	–	–	–
ERGDNDISPFSGDGQ (ERGDNDISPFSGDGQ-NH2) [D-00004]	best results	–	–	–	–	–	–
